Values quoted from earlier work, collected in US8287898B2, “Compositions and methods for body weight management” (The Procter & Gamble Company, priority 2000, dated 2012).
Read-outs that look alike come from different tables or passages of the source.

Key:
[1] = sham feeding rat model
[2] = jejunally infused neat, 0.2 mL/hr for seven hours, rats
[3] = solutions infused in the duodenum or mid-gut (jejunum), or into the colon; rats, three hours of feeding

Row | Structure (SMILES) | total caloric intake ([1]; duodenally infused emulsion) | total daily caloric intake [2] | total caloric intake ([1]; ileal infusion) | total caloric intake [3]
1 | CC/C=C\C/C=C\C/C=C\CCCCCCCC(=O)O [linolenic] | somewhat less effective |  |  | 
2 | CCCCCCCC/C=C\CCCCCCCC(=O)O [oleic acid] | somewhat less effective | significantly reduce |  | 
3 | CCCCC/C=C\C/C=C\CCCCCCCC(=O)O [linoleic acid] | reduce total caloric intake | significantly reduce | do not | 
4 | N[C@@H](Cc1ccccc1)C(=O)O [phenylalanine] |  |  |  | suppressed total caloric intake
5 | N[C@@H](Cc1c[nH]c2ccccc12)C(=O)O [tryptophan] |  |  |  | suppressed total caloric intake
